Test results published in PMC7200681, “The calcitonin-like system is an ancient regulatory system of biomineralization” (Scientific Reports, 2020).

What was measured:
Set-up in all cases: species or system Mytilus galloprovincialis
[1] = system: alpha-carbonic anhydrase (CA) esterase activity in mussel mantle edge; assay: Esterase (carbonic anhydrase) activity in mantle after ex-vivo incubation; conditions: after exposure to CALCIIa 10 μM or ouabain 2 mM; 4-Nitrophenyl acetate substrate; n = 6
Procedure: (§1) (A) Esterase activity and (B) Acid phosphatase activity. Enzyme activity was quantified in protein extracts from the mantle of control or challenged samples that were incubated with the mussel CALCIIa peptide. Values represent the mean ± SEM (CA, n = 6 and TRAP, n = 10) performed in duplicate. Prism GraphPad v5 software was used to assess the significance of the differences between the groups using One-way Anova and Tukey’s multiple comparison test. […] C - control; P - peptide (10 μM); O - ouabain (2 mM), OP - ouabain (2 mM) and peptide (10 μM); PreOP - pre stimulation for 1 hour with the peptide and 4 hours incubation with OP.
(§2) The posterior mantle edge region of the Mediterranean mussel was collected and washed in culture medium. The composition of the culture medium was as described in[91] […] The culture medium was supplemented with heat inactivated 2% FBS (SIGMA-ALDRICH), 0.1% penicillin: streptomycin antibiotic mix (10.000 U:10 mg/ml, SIGMA-ALDRICH) and 250 μg/ml sterile filtered 1:100 amphotericin B solution (Sigma-Aldrich). The posterior mantle edge from mussels was collected into culture medium and cut into fragments of approximately 1–2 mm in length. […]
Esterase activity in the mussel posterior mantle edge (n = 6/experimental group) was quantified using a colorimetric assay that measures the conversion of the substrate 4-Nitrophenyl acetate to p-nitrophenolate[92]. […]

[2] = system: mussel mantle edge; assay: Ex-vivo incubation of mantle edge fragments, calcium quantification by MP-AES; conditions: 4 h at 19-20 °C; CALCIIa 10 μM or ouabain 2 mM alone; MP-AES at 393.366 nm; mean ± SEM; control 400.67 ±13.83 ppm; SEM
Procedure: Figure 7 Effect of the mussel calcitonin-like peptide on (A) calcium (ppm) concentration in the mantle edge and (B) calcium uptake by mantle cells of the Mediterranean mussel. (A) The quantity of calcium (ppm) present in the mantle edge after mussel CALCIIa peptide incubation was measured using a Microwave Plasma-Atomic Emission Spectrometer (MP-AES, Agilent) at 393.366 nm. A standard curve for calcium was performed before analysing the samples. In vitro mantle assays with CALCIIa peptide and with ouabain and control (culture medium and mantle) were repeated on at least 3 independent occasions. For each assay at least ten replicates were performed and the mantle edge distal to the umbo was used (one mantle fragment per replica). Prism GraphPad v5 software was used to assess the significance of differences between the groups using a One-way Anova and Tukey’s multiple comparison test. […] C - control (no peptide or ouabain); P - peptide (10 μM); O - ouabain (2 mM), OP - ouabain (2 mM) and peptide (10 μM); PreOP - pre -stimulation for 1 hour with the peptide followed by 4 hours incubation with OP. (B) Digital photographs of the mussel mantle cells in the presence (CALCIIa, 10 μM) or absence (control) of the mussel CALCIIa peptide. Calcium ions were stained with 50 mM of Calcein (green) and cell nuclei (blue) with DAPI (Acros Organics). An increase in cellular fluorescence represents an increase in calcium uptake. Fluorescence of the CALCIIa peptide stimulated cells was 1.9 times higher than the control. The average mantle cell size was 3–4 μm and fluorescent images were taken using a Leica DM IL microscope coupled to a Visicam HDMI 6 digital camera and photographs were analysed using ImageJ software (v. 1.52a) to calculate the fluorescence intensity and for image overlay. The scale bar is indicated.
The posterior mantle edge region of the Mediterranean mussel was collected and washed in culture medium. The composition of the culture medium was as described in[91] […]

[3] = system: acid phosphatase (AP) activity in mussel mantle edge; assay: Acid phosphatase (TRAP) activity in mantle after ex-vivo incubation; conditions: after exposure to CALCIIa 10 μM or ouabain 2 mM; TRAP assay, pNPP, pH 5.3; p < 0.05
Procedure: as §1, §2
Acid phosphatase activity of the mantle protein extracts (n = 6/ group) was determined using 96 well-plates (GREINER, Germany) and a tartrate resistant acid phosphatase (TRAP) assay as described in[93].

C[C@@H]1O[C@@H](O[C@H]2C[C@@H](O)[C@]3(CO)[C@H]4[C@H](O)C[C@]5(C)[C@@H](C6=CC(=O)OC6)CC[C@]5(O)[C@@H]4CC[C@]3(O)C2)[C@H](O)[C@H](O)[C@H]1O [Ouabain, ouabain]
CA esterase activity in mantle edge (in words) [1]: neither of the bivalve CALCs or ouabain modified | Calcium in the mantle edge after incubation [2]: 588.71 ± 42.92 ppm | Acid phosphatase (AP) activity in mantle edge compared to control (in words) [3]: significantly decreased
